Data reported in the Deep4Chem optical property database.

Assay: solvent given as SMILES
[1] = in O=P(c1ccccc1)(c1ccccc1)c1ccc2oc3ccc(P(=O)(c4ccccc4)c4ccccc4)cc3c2c1

SMILES: CN(c1ccccc1)c1ccc(/C=C/c2ccccc2)cc1
- fluorescence lifetime (in CC#N): 1.86 ns
- fluorescence lifetime (in CCCCCC): 0.62 ns

SMILES: CN1CCN(CCCN2c3ccccc3Sc3ccc(C(F)(F)F)cc32)CC1
- fluorescence lifetime (in CC#N): 2.68 ns
- fluorescence lifetime (in CO): 2.52 ns
- fluorescence lifetime (in O): 3.01 ns

SMILES: CCCCC(CC)Cn1c2cc(C#N)ccc2c2cc(-c3ccc(N(c4ccccc4)c4ccccc4)cc3)c(C#N)cc21 (configuration not stated)
- fluorescence lifetime (in ClCCl): 7.59 ns

SMILES: CCCCCn1c2ccccc2c(=O)c2ccccc21
- fluorescence lifetime (in CS(C)=O): 8.1 ns

SMILES: O=C1NC(=O)c2c1c1c3ccccc3[nH]c1c1[nH]c3ccccc3c21
- fluorescence lifetime (in C1CCOC1): 8.6 ns
- fluorescence lifetime (in CC#N): 10 ns
- fluorescence lifetime (in CC(C)OC(C)C): 7.3 ns
- fluorescence lifetime (in CCCCOCCCC): 8 ns
- fluorescence lifetime (in CCO): 7.7 ns
- fluorescence lifetime (in CCOC(C)=O): 8.6 ns
- fluorescence lifetime (in CN(C)C=O): 13 ns
- fluorescence lifetime (in ClCCl): 7.1 ns

SMILES: CCCCn1c2c(-c3ccc(N(c4ccccc4)c4ccccc4)cc3)cc(C#N)cc2c2cc(C#N)cc(-c3ccc(N(c4ccccc4)c4ccccc4)cc3)c21
- fluorescence lifetime (in ClCCl): 2.29 ns

SMILES: CN(C)c1ccc(C(=Cc2ccc(/C=C(\C#N)c3ccccc3)cc2)c2ccc(N(C)C)cc2)cc1
- fluorescence lifetime (in C1CCOC1): 0.3 ns

SMILES: CCCCCCC1(CCCCCC)c2ccccc2-c2ccc(-c3ccc(-c4cc(-c5ccccn5)nc(-c5ccccn5)c4)cc3)cc21
- fluorescence lifetime (in ClCCl): 0.77 ns

SMILES: COc1ccc(C(=Cc2ccc(/C=C(\C#N)c3ccc([N+](=O)[O-])cc3)cc2)c2ccc(OC)cc2)cc1
- fluorescence lifetime (in C1CCOC1): 1.4 ns

SMILES: CN(C)c1ccc(C(=Cc2ccc(C=O)cc2)c2ccc(N(C)C)cc2)cc1
- fluorescence lifetime (in C1CCOC1): 7 ns

SMILES: CCN(CC)c1ccc(-c2nc3cc(C(NC(=O)OC(C)(C)C)C(=O)OC)ccc3o2)c(O)c1 (configuration not stated)
- fluorescence lifetime (in CC1CCCCC1): 0.22 ns
- fluorescence lifetime (in CC#N): 0.67 ns
- fluorescence lifetime (in CO): 0.25 ns

SMILES: c1ccc(-c2ccc3c(c2)c2cc(-c4ccccc4)ccc2n3-c2ccc3c(c2)c2cc(-n4c5ccc(-c6ccccc6)cc5c5cc(-c6ccccc6)ccc54)ccc2n3-c2ccc(-c3nc(-c4ccccc4)nc(-c4ccccc4)n3)cc2)cc1
- fluorescence lifetime (in Cc1ccccc1): 6.3 ns

SMILES: CC(C)(C)c1ccc(C(C)(C)C)c(N2C(=O)c3cccc4c(-c5ccc(-c6ccc(N(c7ccccc7)c7ccccc7)cc6)s5)ccc(c34)C2=O)c1
- fluorescence lifetime (in Cc1ccccc1): 2.6 ns

SMILES: C(=C\N1CCCC1)/c1nc2ccccc2nc1-c1ccccc1
- fluorescence lifetime (in C1CCCCC1): 2.3 ns
- fluorescence lifetime (in C1CCOC1): 8.42 ns
- fluorescence lifetime (in CC#N): 5.28 ns
- fluorescence lifetime (in CC(C)=O): 6.88 ns
- fluorescence lifetime (in CCO): 0.49 ns
- fluorescence lifetime (in CO): 0.15 ns
- fluorescence lifetime (in CS(C)=O): 2.97 ns
- fluorescence lifetime (in Cc1ccccc1): 6.52 ns
- fluorescence lifetime (in ClCCl): 10.2 ns

SMILES: COC(=O)C(Cc1ccc2oc(-c3ccc(Nc4ccccc4)cc3)nc2c1)NC(=O)OC(C)(C)C (configuration not stated)
- fluorescence lifetime (in C1CCCCC1): 1.23 ns
- fluorescence lifetime (in C1CCOC1): 2.68 ns
- fluorescence lifetime (in C1COCCO1): 1.83 ns
- fluorescence lifetime (in CC1CCCO1): 2.75 ns
- fluorescence lifetime (in CC1COC(=O)O1): 1.98 ns
- fluorescence lifetime (in CC#N): 2.26 ns
- fluorescence lifetime (in CC(C)=O): 2.96 ns
- fluorescence lifetime (in CC(C)CC(C)(C)C): 1.01 ns
- fluorescence lifetime (in CC(C)CO): 2.23 ns
- fluorescence lifetime (in CC(C)O): 2.43 ns
- fluorescence lifetime (in CC(C)OC(C)C): 2.48 ns
- fluorescence lifetime (in CC(O)CO): 0.54 ns
- fluorescence lifetime (in CCC(C)CC): 1.03 ns
- fluorescence lifetime (in CCCCC): 1.14 ns
- fluorescence lifetime (in CCCCCC): 1.02 ns
- fluorescence lifetime (in CCCCCCCCC): 1.06 ns
- fluorescence lifetime (in CCCCCCCCCC): 1.09 ns
- fluorescence lifetime (in CCCCCCCO): 2.23 ns
- fluorescence lifetime (in CCCCCCO): 2.41 ns
- fluorescence lifetime (in CCCCCO): 2.89 ns
- fluorescence lifetime (in CCCCO): 2 ns
- fluorescence lifetime (in CCO): 0.8 ns
- fluorescence lifetime (in CCOC(C)=O): 2.46 ns
- fluorescence lifetime (in CCOCC): 2.27 ns
- fluorescence lifetime (in CN(C)C=O): 2.45 ns
- fluorescence lifetime (in CO): 0.43 ns
- fluorescence lifetime (in COCCOC): 0.9 ns
- fluorescence lifetime (in CS(C)=O): 1.92 ns
- fluorescence lifetime (in Cc1ccccc1): 1.36 ns
- fluorescence lifetime (in Cc1ccccc1C): 1.35 ns
- fluorescence lifetime (in ClC(Cl)Cl): 2.26 ns
- fluorescence lifetime (in ClCCl): 3.1 ns
- fluorescence lifetime (in NC=O): 1.7 ns
- fluorescence lifetime (in OC1CCCCC1): 2.23 ns
- fluorescence lifetime (in OCCO): 2.95 ns
- fluorescence lifetime (in c1ccccc1): 1.42 ns

SMILES: CC(C)(C)c1ccc(C2=C(c3ccc(C(C)(C)C)cc3)[Si](c3ccccc3)(c3ccccc3)c3ccccc32)cc1
- fluorescence lifetime (in C1CCOC1): 1.62 ns

SMILES: COC(=O)/C(C#N)=c1/cc/c(=c2/cc/c(=C(\C#N)C(=O)OC)s2)s1
- fluorescence lifetime (in Cc1ccccc1): 0.016 ns

SMILES: CCCCCCCCCCCCN1C(=O)c2c(c3ccc4cc(-c5ccc(N(C)C)cc5)c(OC)cc4c3c3c2ccc2cc(-c4ccc(N(C)C)cc4)c(OC)cc23)C1=O
- fluorescence lifetime (in ClCCl): 5.85 ns

SMILES: NC(=O)C1=CN([C@H]2C[C@H](O)[C@@H](COP(=O)([O-])OP(=O)([O-])OC[C@H]3O[C@@H](n4cnc5c(N)ncnc54)C[C@@H]3O)O2)C=CC1
- fluorescence lifetime (in O): 0.4 ns

SMILES: CCCCC(CC)COc1ccc2nc(-c3ccc(-c4ccc(N(C)C)cc4)s3)sc2c1 (configuration not stated)
- fluorescence lifetime (in ClCCl): 2.28 ns

SMILES: COCCOCCOCCOCC(COCCOCCOCCOC)Oc1cc(/C=C/c2ccc(/C=C(\C#N)c3ccccc3)cc2)c(OC(COCCOCCOCCOC)COCCOCCOCCOC)cc1/C=C/c1ccc(/C=C(\C#N)c2ccccc2)cc1
- fluorescence lifetime (in ClCCl): 1.6 ns

SMILES: CNc1cccc2c1-c1ccccc1C2=O
- fluorescence lifetime (in C1CCCCC1): 8.8 ns
- fluorescence lifetime (in CC#N): 2.2 ns
- fluorescence lifetime (in c1ccccc1): 8.4 ns

SMILES: CC1=CC(/C=C/c2ccc([N+](C)(C)C)cc2)=[N+]2C1=C(c1ccc(C#CCO[C@@H]3O[C@H](CO)[C@@H](O)C(O)[C@H]3O)cc1)c1c(C)cc(/C=C/c3ccc([N+](C)(C)C)cc3)n1[B-]2(F)F (some centres not stated)
- fluorescence lifetime (in CC#N): 5.3 ns

SMILES: COc1cc2[nH]c3c(c2cc1OCC(=O)O)CCCC3=O
- fluorescence lifetime (in C1CCOC1): 0.411 ns
- fluorescence lifetime (in C1COCCO1): 0.189 ns
- fluorescence lifetime (in CC#N): 0.627 ns
- fluorescence lifetime (in CCCCCCCCCCCCO): 1.24 ns
- fluorescence lifetime (in CCCCCCCCCCO): 1.17 ns
- fluorescence lifetime (in CCCCCCCCO): 1.15 ns
- fluorescence lifetime (in CCCCCCO): 1.17 ns
- fluorescence lifetime (in CCCCO): 1.29 ns
- fluorescence lifetime (in CCO): 1.69 ns
- fluorescence lifetime (in CCOC(C)=O): 0.279 ns
- fluorescence lifetime (in CN(C)C=O): 1.92 ns
- fluorescence lifetime (in CO): 1.87 ns
- fluorescence lifetime (in CS(C)=O): 2.27 ns
- fluorescence lifetime (in Cc1ccccc1): 0.189 ns
- fluorescence lifetime (in O): 2.23 ns
- fluorescence lifetime (in c1ccccc1): 0.188 ns

SMILES: Cc1cc(-c2ccc(-n3c4ccccc4c4ccccc43)cc2)nc(-c2ccc(-c3ccccc3)cc2)n1
- fluorescence lifetime (in C1CCOC1): 4.02 ns
- fluorescence lifetime (in CN(C)C=O): 6.66 ns
- fluorescence lifetime (in Cc1ccccc1): 2.27 ns
- fluorescence lifetime (in ClC(Cl)Cl): 3.93 ns

SMILES: Cc1ccc2c(c1)C1(c3ccccc3Oc3ccccc31)c1cc(C)ccc1N2c1ccc(-c2nc(-c3ccccc3)cc(-c3ccccc3)n2)cc1
- fluorescence lifetime [1]: 11 ns

SMILES: CC(C)(C)c1ccc(Oc2cc3c4c(cc(Oc5ccc(C(C)(C)C)cc5)c5c6c(Oc7ccc(C(C)(C)C)cc7)cc7c8c(cc(Oc9ccc(C(C)(C)C)cc9)c(c2c45)c86)C(=O)OC7=O)C(=O)OC3=O)cc1
- fluorescence lifetime (in ClC(Cl)Cl): 6.4 ns

SMILES: CCOC(=O)c1ccc2c(c1)sc1c3ccc(C(=O)OCC)cc3n(C)c21
- fluorescence lifetime (in CCCO): 3.9 ns

SMILES: Cn1nc(-c2ccccc2)c2nc3cc(Cl)ccc3nc21
- fluorescence lifetime (in C1CCCCC1): 23.9 ns
- fluorescence lifetime (in C1CCOC1): 20.1 ns
- fluorescence lifetime (in CC#N): 7.74 ns

SMILES: CCCCn1c(-c2ccc(-c3nnc(-c4ccccc4)o3)cc2)nc(-c2ccccc2)c1-c1ccccc1
- fluorescence lifetime (in ClCCl): 1.76 ns

SMILES: NS(=O)(=O)c1ccc(N2N=C(c3ccc(O)cc3)CC2c2ccc(F)cc2)cc1 (configuration not stated)
- fluorescence lifetime (in C1CCOC1): 2.42 ns
- fluorescence lifetime (in C1COCCO1): 2.33 ns
- fluorescence lifetime (in CC#N): 2.24 ns
- fluorescence lifetime (in CC(C)O): 1.98 ns
- fluorescence lifetime (in CCO): 1.78 ns
- fluorescence lifetime (in CCOC(C)=O): 2.35 ns
- fluorescence lifetime (in CN(C)C=O): 2.45 ns
- fluorescence lifetime (in CO): 1.64 ns
- fluorescence lifetime (in CS(C)=O): 2.45 ns
- fluorescence lifetime (in O): 3.17 ns

SMILES: N#Cc1c(-n2c3ccccc3c3ccccc32)c(-n2c3ccccc3c3ccccc32)c(-n2c3ccccc3c3ccccc32)c(-n2c3ccccc3c3ccccc32)c1-n1c2ccccc2c2ccccc21
- fluorescence lifetime (in Cc1ccccc1): 3.8 ns
- fluorescence lifetime (in c1cc(-c2cccc(-n3c4ccccc4c4ccccc43)c2)cc(-n2c3ccccc3c3ccccc32)c1): 3.2 ns

SMILES: COc1ccc2nc(/N=N/c3ccc(N(C)C)cc3)sc2c1
- fluorescence lifetime (in CC#N): 4.92 ns
- fluorescence lifetime (in ClCCl): 4.98 ns

SMILES: CC[n+]1c(C=C2C(=O)C(C=C3Sc4cc(Cl)ccc4N3C)=C2[O-])[se]c2ccccc21
- fluorescence lifetime (in CO): 0.83 ns
- fluorescence lifetime (in ClC(Cl)Cl): 4.41 ns

SMILES: CC1=C(c2ccc(N(c3ccccc3)c3ccccc3)cc2)C(C)=[N+]2C1=C(c1c(-c3ccccn3)nc3ccccn13)c1c(C)cc(C)n1[B-]2(F)F
- fluorescence lifetime (in ClCCl): 0.2 ns

SMILES: Cc1sc(-c2ccc(-c3nc(-c4ccccc4)c(-c4ccccc4)[nH]3)cc2)c(C)c1C1=C(c2c(C)n(C)c3ccccc23)C(F)(F)C(F)(F)C1(F)F
- fluorescence lifetime (in C1CCOC1): 0.48 ns

SMILES: Cc1nc(-c2ccc(N3c4ccccc4C(c4ccccc4)(c4ccccc4)c4ccccc43)cc2)cc(-c2ccc(N3c4ccccc4C(c4ccccc4)(c4ccccc4)c4ccccc43)cc2)n1
- fluorescence lifetime [1]: 11 ns

SMILES: CCN(CC)c1ccc2cc(C#N)/c(=N\C(=O)c3ccc(F)cc3)oc2c1
- fluorescence lifetime (in CCO): 3 ns
- fluorescence lifetime (in ClCCl): 3.8 ns

SMILES: c1csc(-c2ccc(-c3cccs3)c3nsnc23)c1
- fluorescence lifetime (in ClC(Cl)Cl): 10.2 ns

SMILES: N#Cc1c2ccccc2cc2ccccc12
- fluorescence lifetime (in C1CCCCC1): 12.7 ns
- fluorescence lifetime (in CO): 16 ns

SMILES: Cc1ccc(/C2=c3\cc/c(o3)=C(\c3ccc(C)cc3)c3ccc([nH]3)-c3ccc4n3[B-](F)(F)[N+]3=C(C=CC3=C4c3ccco3)c3ccc2[nH]3)cc1
- fluorescence lifetime (in ClC(Cl)Cl): 4.1 ns

SMILES: O=C1O[B-]2(OC1=O)OC(c1ccc3ccccc3c1)=CC(c1ccc3ccccc3c1)=[O+]2
- fluorescence lifetime (in CC#N): 4.6 ns
- fluorescence lifetime (in ClC(Cl)(Cl)Cl): 1.8 ns

SMILES: Cc1ccc2c(c1)c1cc(C)ccc1n2-c1cccc(-n2c3ccc(C)cc3c3cc(C)ccc32)c1C#N
- fluorescence lifetime (in Cc1ccccc1): 5.5 ns
- fluorescence lifetime (in O=P(c1ccccc1)(c1ccccc1)c1ccccc1Oc1ccccc1P(=O)(c1ccccc1)c1ccccc1): 6.6 ns

SMILES: Cc1cc(=O)oc2c1cc(Br)c1occ(C)c12
- fluorescence lifetime (in C1COCCO1): 0.023 ns
- fluorescence lifetime (in CC#N): 0.044 ns
- fluorescence lifetime (in CCO): 0.08 ns
- fluorescence lifetime (in OCC(F)(F)F): 0.13 ns

SMILES: COc1ccc(-c2cc3c(s2)c(-c2ccccc2)cc(=O)n3C)cc1
- fluorescence lifetime (in ClCCl): 4.69 ns

SMILES: CC1=C2c3ccccc3C(c3ccc[nH]3)=[N+]2[B-](F)(F)n2cccc21
- fluorescence lifetime (in ClCCl): 6.71 ns
